Laboratory results: publication PMC11876601 (Molecular Systems Biology, 2025)
Like-named read-outs stand apart in the source and are kept apart here.

Columns and labels:
Assay in all cases: cells
[1] = system: Capan-1; parameters: Viability of PDAC cell lines, ATPlite luminescence, 11-dose single-agent curve fit; details: Homo sapiens, CAPAN-1, 72 h, read-out: EC50 [nM]
Outline: (§1)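 screening used cells plated at 1000 to 5000 per well one day before treatment. Final DMSO was 0.2%. Each plate held untreated negative-control wells and 5 µM staurosporine positive-control wells.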

[2] = system: MiaPaCa-2; parameters: ATPlite luminescence viability of PDAC cell lines, 11-dose single-agent curves, 4-parameter fit; details: Homo sapiens, MIA PaCa-2, 72 h, read-out: EC50 [nM]
Outline: (§2)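 Drug-combination screening used cells plated at 1000 to 5000 per well one day before treatment. Final DMSO was 0.2%. Each plate held untreated negative-control wells and 5 µM staurosporine positive-control wells.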

[3] = system: Colo-357; parameters: ATPlite luminescence viability of PDAC cell lines, 11-dose single-agent curves, 4-parameter fit; details: Homo sapiens, COLO357, 72 h, read-out: EC50 [nM]
Outline: as §2

[4] = system: HPDE; parameters: ATPlite luminescence viability of PDAC cell lines, 11-dose single-agent curves, 4-parameter fit; details: HPDE, 72 h, read-out: EC50 [nM]
Outline: as §2

[5] = system: HuP-T4; parameters: ATPlite luminescence viability of PDAC cell lines, 11-dose single-agent curves, 4-parameter fit; details: Homo sapiens, HuP-T4, 72 h, read-out: EC50 [nM]
Outline: as §2

[6] = system: BxPC-3; parameters: ATPlite luminescence viability of PDAC cell lines, 11-dose single-agent curves, 4-parameter fit; details: Homo sapiens, BXPC-3, 72 h, read-out: EC50 [nM]
Outline: as §2

[7] = system: PaTu-8988-T; parameters: ATPlite luminescence viability of PDAC cell lines, 11-dose single-agent curves, 4-parameter fit; details: Homo sapiens, PaTu 8988t, 72 h, read-out: EC50 [nM]
Outline: as §2

[8] = system: Dan-G; parameters: ATPlite luminescence viability of PDAC cell lines, 11-dose single-agent curves, 4-parameter fit; details: 72 h, read-out: EC50 [nM]
Outline: as §2

[9] = system: FAMPAC; parameters: ATPlite luminescence viability of PDAC cell lines, 11-dose single-agent curves, 4-parameter fit; details: 72 h, read-out: EC50 [nM]
Outline: as §2

[10] = system: Suit2-07; parameters: ATPlite luminescence viability of PDAC cell lines, 11-dose single-agent curves, 4-parameter fit; details: 72 h, read-out: EC50 [nM]
Outline: as §2

[11] = system: PSN-1; parameters: ATPlite luminescence viability of PDAC cell lines, 11-dose single-agent curves, 4-parameter fit; details: Homo sapiens, PSN1, 72 h, read-out: EC50 [nM]
Outline: as §2

[12] = system: PANC-1; parameters: ATPlite luminescence viability of PDAC cell lines, 11-dose single-agent curves, 4-parameter fit; details: Homo sapiens, PANC-1, 72 h, read-out: EC50 [nM]
Outline: as §2

[13] = system: AsPC-1; parameters: ATPlite luminescence viability of PDAC cell lines, 11-dose single-agent curves, 4-parameter fit; details: Homo sapiens, ASPC1, 72 h, read-out: EC50 [nM]
Outline: as §2

[14] = system: Capan-1; parameters: ATPlite luminescence viability of PDAC cell lines, 11-dose single-agent curves, 4-parameter fit; details: Homo sapiens, CAPAN-1, 72 h, read-out: EC50 [nM]
Outline: as §2

[15] = system: FAMPAC; parameters: Viability of PDAC cell lines, ATPlite luminescence, 11-dose single-agent curve fit; details: 72 h, read-out: EC50 [nM]
Outline: as §1

[16] = system: PANC-1; parameters: Viability of PDAC cell lines, ATPlite luminescence, 11-dose single-agent curve fit; details: Homo sapiens, PANC-1, 72 h, read-out: EC50 [nM]
Outline: as §1

[17] = system: AsPC-1; parameters: Viability of PDAC cell lines, ATPlite luminescence, 11-dose single-agent curve fit; details: Homo sapiens, ASPC1, 72 h, read-out: EC50 [nM]
Outline: as §1

SMILES | EC50 [1] [nM] | EC50 [2] [nM] | EC50 [3] [nM] | EC50 [4] [nM] | EC50 [5] [nM] | EC50 [6] [nM] | EC50 [7] [nM] | EC50 [8] [nM] | EC50 [9] [nM] | EC50 [10] [nM] | EC50 [11] [nM] | EC50 [12] [nM] | EC50 [13] [nM] | EC50 [14] [nM] | EC50 [15] [nM] | EC50 [16] [nM] | EC50 [17] [nM]
CC1(COc2ccc3c(c2)ncn3-c2ccc3cccc(N4CCC(N)CC4)c3n2)COC1 [Crenolanib] | 3710 | 2190 | 5080 | 3500 | > 10000 | 3600 | 5450 | 5940 | 3340 | 4860 | 5250 | 8300 | > 10000 | – | – | – | –
COc1cc(Nc2c(C#N)cnc3cc(OCCCN4CCN(C)CC4)c(OC)cc23)c(Cl)cc1Cl [Bosutinib] | – | > 10000 | 5090 | 2140 | > 10000 | 2170 | > 10000 | 2910 | 3030 | 2330 | 4490 | > 10000 | 5990 | 6130 | – | – | –
C=CC(=O)Nc1cc(Nc2nccc(-c3cn(C)c4ccccc34)n2)c(OC)cc1N(C)CCN(C)C [Osimertinib] | – | > 10000 | 347 | 542 | 5300 | > 10000 | > 10000 | 2560 | > 10000 | > 10000 | 5530 | > 10000 | > 10000 | 5860 | – | – | –
CC(C)NC(=O)[C@H]1CC[C@@H](n2/c(=N/C(=O)c3ccc(F)cc3)[nH]c3ccc(CN4CCC(C(C)(C)O)CC4)cc32)CC1 [Belizatinib] | 8120 | 308 | 7390 | 1270 | > 10000 | 1420 | 580 | 4630 | – | 599 | 1340 | 1860 | 496 | – | 3220 | – | –
Cc1cc(Nc2ncc(Cl)c(Nc3ccccc3S(=O)(=O)C(C)C)n2)c(OC(C)C)cc1C1CCNCC1 [Ceritinib] | – | 563 | 2930 | 1550 | > 10000 | 2870 | 1450 | 2470 | 2770 | 4690 | 3390 | > 10000 | 784 | 5480 | – | – | –
C=CC(=O)Nc1cccc(Nc2nc(Nc3ccc(N4CCN(C(C)=O)CC4)cc3OC)ncc2C(F)(F)F)c1 [Rociletinib] | – | 2370 | 7270 | 3460 | > 10000 | 4820 | 4940 | 6290 | 3580 | 2750 | 2080 | 7120 | 8730 | 6270 | – | – | –
Cc1cnc(Nc2ccc(OCCN3CCCC3)cc2)nc1Nc1cccc(S(=O)(=O)NC(C)(C)C)c1 [Fedratinib] | – | 400 | 1070 | 1280 | 8310 | 659 | 274 | 1630 | 1010 | 320 | 827 | 2200 | 622 | 2030 | – | – | –
Cc1ccc(C(=O)Nc2ccc(CN3CCN(C)CC3)c(C(F)(F)F)c2)cc1C#Cc1cnc2cccnn12 [Ponatinib] | – | 335 | 9250 | 1930 | > 10000 | 739 | 357 | 1200 | 830 | 618 | 620 | > 10000 | 1160 | > 10000 | – | – | –
CN1CCN(c2ccc3nc(-c4c(N)c5c(F)cccc5[nH]c4=O)[nH]c3c2)CC1 [Dovitinib] | – | 1680 | 4350 | 4540 | 3570 | – | 3150 | 3430 | 2170 | 863 | 2720 | 4250 | > 10000 | 4250 | – | – | –
Cc1ccc(C(=O)OCc2ccc([C@@H](CN)C(=O)Nc3ccc4cnccc4c3)cc2)c(C)c1 [Netarsudil] | – | 3630 | 5250 | > 10000 | 5200 | 4970 | 4320 | 1590 | 5930 | > 10000 | > 10000 | 10000 | 6090 | > 10000 | – | – | –
CC(=O)c1cc2c(o1)C(=O)c1ccccc1C2=O [Napabucasin] | – | 176 | 6740 | 390 | 1650 | 493 | 220 | 5300 | 322 | > 10000 | 588 | 1840 | 644 | 6090 | – | – | –
Nc1cc(C(F)(F)F)c(-c2cc(N3CCOCC3)nc(N3CCOCC3)n2)cn1 [Buparlisib] | – | 572 | 403 | 1130 | 1300 | – | 724 | 493 | 752 | 479 | 638 | 703 | 1030 | 663 | – | – | –
CN1CCN(c2ccc(C(=O)Nc3n[nH]c4ccc(Cc5cc(F)cc(F)c5)cc34)c(NC3CCOCC3)c2)CC1 [Entrectinib] | – | 2720 | 4900 | 3900 | > 10000 | 3500 | > 10000 | > 10000 | 5900 | > 10000 | > 10000 | 5790 | 5960 | 6260 | – | – | –
Cc1ccc(NC(=O)c2ccc(CN3CCN(C)CC3)cc2)cc1Nc1nc(-c2cccnc2)cs1 [Masitinib] | – | 3770 | 6650 | 5500 | > 10000 | 3050 | 4770 | 3880 | > 10000 | > 10000 | 4380 | 3250 | > 10000 | 3950 | – | – | –
C1=N/C2=N/c3ccc(OCCN4CCCC4)c(c3)COC/C=C/COCc3cccc(c3)C(=C1)N2 [Pacritinib] | – | 475 | 1610 | 1340 | 2500 | 1190 | 477 | 2100 | 1280 | 654 | 971 | 1780 | 529 | 2210 | – | – | –
C[C@@H]1CN(C(=O)c2ccc(NC(=O)c3cc(O[C@H](C)c4c(Cl)ccc(F)c4Cl)c(N)nn3)cc2)C[C@H](C)N1 [Ensartinib] | – | 791 | 2870 | 4130 | 2630 | 7520 | > 10000 | 2960 | 3600 | 2000 | 4440 | > 10000 | 5190 | 1990 | – | – | –
COc1cc(Nc2ncc(F)c(Nc3ccc4c(n3)N(COP(=O)(O)O)C(=O)C(C)(C)O4)n2)cc(OC)c1OC [Fostamatinib] | – | 946 | 1410 | > 10000 | 3770 | 4790 | 1190 | 1010 | > 10000 | 1360 | 2020 | – | – | 2290 | – | 658 | > 10000
